Patent US9486440B2, “Uses of indole-ketones or indolidones as neuro-protective drugs” (UNIVERSITY OF MACAU, priority 2011, dated 2016)

How the values were obtained:
th gene = assay: MPTP zebrafish, th gene expression by real-time PCR; format: in vivo; conditions: 200 μM MPTP, 48 hours
Protocol: Wild-type zebrafish (AB strain) and Tg (fli-1:EGFP) transgenic zebrafish were maintained as described in the Zebrafish Handbook (Westerfield, 1993). Zebrafish embryos were generated by natural pair-wise mating (3-12 months old) and raised at 28.5° C. in embryo medium (13.7 mM NaCl, 540 μM KCl, pH 7.4, 25 μM Na2HPO4, 44 μM KH2PO4, 300 μM CaCl2, 100 μM MgSO4, 420 μM NaHCO3, pH 7.4). […] An equal concentration of DMSO in embryo medium was used as vehicle control in each experiment.
Healthy zebrafish embryos were picked out and […] manually at 1 day post fertilization (dpf) and distributed into a 12-well plate with 20 fish embryos or a 6-well microplate with 30 fish embryos in each well. […] Thus subsequent studies were done with 200 μM MPTP for whole-mount immunostaining and gene expression experiments.
Total RNA was extracted from 30 zebrafish larvae of each treatment group using the RNeasy Mini Kit (Qiagen, USA) according to the manufacturer's instructions. […] The expression of the mRNA was normalized to the amount of bactin1 using the relative quantification method described by the manufacturer. […]

[1] = SU4312 in brain homogenate of rats after i.p. administration (HPLC); format: in vivo, rat; conditions: 12 mg/kg i.p.
Protocol: To investigate whether SU4312 could reach the brain, an HPLC method was used to detect SU4312 in the brain homogenate and plasma of rats (Scott et al., 2004; Spitsin et al., 2008). Briefly, after drug administration by i.p., the animals were transcardially perfused with PBS/heparin (1000 U/L). Then rats were sacrificed by decapitation and brain tissue was homogenized. SU4312 in the brain homogenate was extracted with 3 ml […]. After evaporating the solvent, the residue was reconstituted in 50 μl methanol. SU4312 in the brain tissue was identified by an Agilent 1200 Series HPLC coupled with UV detector at a wavelength of 254 nm. Prior to the preparation of brain homogenate, transcardial perfusion with PBS/heparin was conducted in order to remove blood from cerebravascular system so as to avoid the interference of the SU4312 that simply retained in the brain vasculature.
Plasma concentration of SU4312 was also assayed by an HPLC method. Briefly, after drug administration by i.p., serial blood samples were collected through right internal jugular vein catheterization at various time points post-dosing. The plasma samples were treated with acetonitrile and methanol followed by centrifugation, and 20 μl supernatants were injected into the liquid chromatographic system. The mobile phase consisted of a mixture of methanol and water (80:20, v/v) at a flow rate of 1 ml/min.

recombinant human MAO-B = target: T1, recombinant human MAO-B (Homo sapiens, UniProt P27338); assay: MAO-Glo MAO-B inhibition assay; format: biochemical
T1 construct: purchased Sigma-Aldrich
T1 sequence (P27338 whole entry): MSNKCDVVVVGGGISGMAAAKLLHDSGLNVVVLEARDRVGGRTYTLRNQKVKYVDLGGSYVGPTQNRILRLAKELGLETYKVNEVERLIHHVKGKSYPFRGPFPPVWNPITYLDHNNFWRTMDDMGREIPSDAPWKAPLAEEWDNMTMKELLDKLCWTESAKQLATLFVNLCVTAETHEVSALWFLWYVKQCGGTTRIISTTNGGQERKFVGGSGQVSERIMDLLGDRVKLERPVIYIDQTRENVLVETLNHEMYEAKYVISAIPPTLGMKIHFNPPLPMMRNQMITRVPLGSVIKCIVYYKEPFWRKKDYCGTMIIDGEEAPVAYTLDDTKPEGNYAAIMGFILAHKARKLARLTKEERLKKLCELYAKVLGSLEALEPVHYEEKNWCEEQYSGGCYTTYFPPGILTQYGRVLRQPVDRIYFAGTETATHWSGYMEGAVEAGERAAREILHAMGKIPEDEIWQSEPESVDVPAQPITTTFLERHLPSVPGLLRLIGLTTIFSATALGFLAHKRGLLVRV
Protocol: The MAO-B inhibition activity of SU4312 was determined by MAO-Glo™ Assay kit (Promega Inc., USA). The recombinant human MAO-B enzymes and selegiline used in this study were purchased from Sigma-Aldrich. Concentrations of SU4312 tested were 0.01, 0.03, 0.1, 0.3, 1.0 and 10 μM. Selegiline, a known MAO-B inhibitor, was used as positive control at 0.001, 0.01, 0.1, 1, 10 μM. Briefly, SU4312 and selegiline were incubated in 96-well opaque white plates with MAO substrate and rhMAO-B (0.25 mg protein/mL final concentration). Reactions were started by addition of rhMAO-B. Samples were incubated for 1 hour at room temperature. Reactions were terminated by addition of luciferin detection reagent, and samples were incubated an additional 20 minutes to allow development of luciferase- and esterase-dependent luminescence. Relative luminescence was determined with a plate luminometer and was corrected for background using no-MAO-B controls. Results are presented as percent of vehicle (total MAO-B activity).

ERK and Akt pathways = assay: Western blot of phospho-Akt and phospho-ERK after MPP+; format: cell-based; conditions: data not shown
iNOS protein expression = assay: Western blot of iNOS protein in CGNs after MPP+; format: cell-based, rat; conditions: 20 μM, 35 μM MPP+
Protocol: Briefly, neurons were harvested in a cell lysis buffer. Protein was separated on SDS-polyacrylamide gel and transferred onto polyvinyldifluoride membranes. After membrane blocking, proteins were detected using primary antibodies. After incubation at 4° C. overnight, signals were obtained after binding to chemiluminescent secondary antibodies. Blots were developed using an ECL plus kit (Amersham Bioscience, Aylesbury, UK) and exposed to Kodak autoradiographic films. All data were from three independent experiments and were expressed as the ratio to optical density (OD) values of the corresponding controls for statistical analyses.

[2] = phase I, 145 mg/m^2; cited from earlier work
[3] = test system: nNOS knockdown PC12 cells; assay: MPP+ in ShRNA-mediated nNOS knockdown PC12 cells; format: cell-based, rat; conditions: 20 μM SU5416 2 hours, then 1 mM MPP+ 24 hours
Protocol: The assay was performed according to the specifications of the manufacturer (MTT kit I; Roche Applied Science). […] After the incubation, 100 μl of the solvating solution (0.01 N HCl in 10% SDS solution) was added to each well for 16-20 hours. The absorbance of the samples was measured at a wavelength of 570 nm with 655 nm as a reference wavelength. Unless otherwise indicated, the extent of MTT conversion in cells exposed to MPP^+ is expressed as a percentage of the control. Cytotoxicity was determined by measuring the release of lactate dehydrogenase (LDH). Briefly, cells were precipitated by centrifugation at 500 g for 5 min at room temperature, 50 μl of the supernatants was transferred into new wells, and LDH was determined using the in vitro toxicology assay kit (Roche). The absorbance of the samples was measured at a wavelength of 490 nm with 655 nm as a reference wavelength. ShRNA against rat nNOS was designed according to […] et al, 2009. […] NM_052799), was used to generate shRNA. […] Sense and antisense oligonucleotides were then annealed and cloned into pG418-GFP vector to express shRNA directed against nNOS under the control of the U6 promoter (GenePharma, Shanghai, China). A negative control shRNA (ShNC) with the same nucleotide composition but lacks significant sequence homology to the genome was also used in the experiments. […]

Row | Structure (SMILES) | th gene expression down-regulated by MPTP (th gene) | detection in the brain, 15 min ([1]; 15 min post-administration) | detection in the brain, 60 min ([1]; 60 min after administration) | MAO-B activity in vitro (recombinant human MAO-B; figure legends) | IC50 (recombinant human MAO-B; rhMAO-B, 1 hour at room temperature) | activities of phospho-Akt and phospho-ERK (ERK and Akt pathways) | MPP+-elevated expression of iNOS protein (iNOS protein expression) | tolerability in patients with advanced malignancies [2] | MPP+-induced cell death in nNOS knockdown PC12 cells (MTT, LDH) [3]
1 | CN(C)c1ccc(C=C2C(=O)Nc3ccccc32)cc1 [SU4312, 3-[4-(dimethylamino)benzylidenyl]indolin-2-one] | significantly alleviated the loss of DA neurons and decrease of th gene expression in a concentration-dependent manner | could rapidly penetrate into the brain and be detected in the brain 15 min post-administration | almost no SU4312 was detected in the brain | inhibited monoamine oxidase-B (MAO-B) activity in a concentration dependent manner | ~200 nM | – | – | – | –
2 | Cc1cc(C)c(/C=C2\C(=O)Nc3ccccc32)[nH]1 [SU5416, (3Z)-3-[(3,5-dimethyl-1H-pyrrol-2-yl)methylidene]-1,3-dihydro-2H-indol-2-one] | – | – | – | – | – | could neither inhibit the activation of pro-apoptotic ERK pathway, nor reverse the decrease of pro-survival Akt pathway | could not affect the elevated expression of iNOS by MPP^+ | well tolerated | no longer able to inhibit MPP^+-induced cell death
